Results from EP4786487A1, “PEPTIDE” (Peptidream Inc, priority 2023, dated 2025).
Like-named read-outs stand apart in the source and are kept apart here. Starred links: 1 amine or outer side, 2 acyl side, 3 side chain; linkers in the order of their positions; H or OH if unused. Positions of bridges follow the written chain, without caps; N, C: chain ends. Non-standard residues stand in square brackets, D forms with d. Residues, ends and D or L forms follow the SMILES beside them. Groups on a side chain read outwards from the residue. *: point of attachment. Phe(3-OCH2COOH) = N[C@@H](Cc1cccc(OCC(=O)O)c1)C(=O)O; NMePhe(3-Ph) = CN[C@@H](Cc1cccc(-c2ccccc2)c1)C(=O)O; X2 = CC(=O)N1CCC(C[C@@H](C(=O)[*:2])N(C)[*:1])CC1; Phe(3-Ph) = N[C@@H](Cc1cccc(-c2ccccc2)c1)C(=O)O; Phe(4-COOH) = N[C@@H](Cc1ccc(C(=O)O)cc1)C(=O)O; Piperazinyl(4-CH2COOH) = O=C(O)CN1CCN(*)CC1; NMe2Nal = CN[C@@H](Cc1ccc2ccccc2c1)C(=O)O; 1Nal = N[C@@H](Cc1cccc2ccccc12)C(=O)O; Gly(decyl) = CCCCCCCCCC[C@H](N)C(=O)O; AEF = NCCOc1ccc(C[C@H](N)C(=O)O)cc1; NMeY = CN[C@@H](Cc1ccc(O)cc1)C(=O)O; X1 = CCCCCCC[C@H](N[*:1])C(=O)[*:2]; NMeF = CN[C@@H](Cc1ccccc1)C(=O)O; NMeE = CN[C@@H](CCC(=O)O)C(=O)O; Cha = N[C@@H](CC1CCCCC1)C(=O)O; NMeA = CN[C@@H](C)C(=O)O; Propyl(3-NH2) = NCCC*; CO = O=C([*:1])[*:2]; Sar = CNCC(=O)O

Tests used:
[1] = biological target: T1, Myostatin (Homo sapiens, UniProt O14793); assay: HepG2 reporter gene assay, Evaluation Procedure (2): 2-concentrations assay, myostatin inhibition; format: cell-based; conditions: HepG2
T1 construct: active myostatin (also called mature myostatin) is a homodimer consisting of two C-terminal growth factor domains; purchased R&D systems 788-G8/CF
T1 sequence (O14793 267-375): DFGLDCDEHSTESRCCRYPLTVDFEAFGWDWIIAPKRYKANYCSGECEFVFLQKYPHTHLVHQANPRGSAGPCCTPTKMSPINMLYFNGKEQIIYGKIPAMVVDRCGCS
Procedure, shortened: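 Myostatin inhibition was measured in a luciferase reporter assay using HepG2 cells transfected with a pGL3 vector containing 12 CAGA repeats upstream of luciferase. After 20 to 24 hours with 10 ng/mL myostatin, cells received One-Glo:PBS (1:1) at 100 µL/well, were shaken for 5 min, and 20 µL/well was moved to 384-well plates and read on an Envision 2104.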

[2] = biological target: T2, GDF-11 (Homo sapiens, UniProt O95390); assay: HepG2 reporter gene assay, Evaluation Procedure (2): 2-concentrations assay, GDF-11 inhibition; format: cell-based; conditions: for inhibition at 0.03 µM: HepG2, peptide 30nM, read-out: GDF11 Inhibition 30nM; for inhibition at 0.03 µM / inhibition at 0.1 µM: GDF-11 10 ng/mL; for inhibition at 0.1 µM: HepG2, peptide 100nM, read-out: GDF11 Inhibition 100nM; for inhibition: read-out: inhibition rate (GDF-11 inhibition assay)
T2 construct: purchased R&D systems 1958-GD-G8/CF
T2 sequence (O95390 299-407): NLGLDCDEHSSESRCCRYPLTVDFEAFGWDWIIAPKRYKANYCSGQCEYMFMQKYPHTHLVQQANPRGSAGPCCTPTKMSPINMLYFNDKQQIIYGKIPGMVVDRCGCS
Procedure, shortened: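 HepG2 cells carrying the transfected pGL3(CAGA)12-luc reporter, a pGL3 vector with luciferase placed downstream of 12 CAGA repeats, were stimulated with GDF-11 at a final 10 ng/mL together with test peptide. Blank wells received no GDF-11 and no peptide. Plates were incubated 20 to 24 hours at 37°C with 5% CO2. Luminescence from One-Glo substrate was read to calculate percent inhibition.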

[3] = peptide 30nM, Myostatin 10 ng/mL, read-out: Myostatin Inhibition 30nM
[4] = peptide 100nM, Myostatin 10 ng/mL, read-out: Myostatin Inhibition 100nM
[5] = Table 7-3/7-4, myostatin 10 ng/mL, peptide at the higher of the 2 concentrations, read-out: inhibition rate (myostatin inhibition assay)
[6] = Table 7-3/7-4, myostatin 10 ng/mL, peptide at the lower of the 2 concentrations, read-out: inhibition rate (myostatin inhibition assay)
[7] = HepG2, first GDF-11 column of Table 7-3/7-4, GDF-11 10 ng/mL, peptide at the lower of the 2 concentrations
[8] = HepG2, second GDF-11 column of Table 7-3/7-4, GDF-11 10 ng/mL, peptide at the higher of the 2 concentrations

Compound	inhibition at 0.03 µM [1, 3] [%]	inhibition at 0.1 µM [1, 4] [%]	inhibition at 0.03 µM [2] [%]	inhibition at 0.1 µM [2] [%]	inhibition at 0.1 µM [1, 5] [%]	inhibition at 0.03 µM [1, 6] [%]	inhibition [2, 7] [%]	inhibition [2, 8] [%]
CCCCCCCCCC[C@@H]1NC(=O)[C@H](CC2CCCCC2)NC(=O)[C@H](CCCNC(=N)N)NC(=O)[C@H](Cc2ccc(C(=O)O)cc2)NC(=O)[C@H](CCCCNC(=O)N2CCN(CC(=O)O)CC2)NC(=O)CN(C)C(=O)[C@H]([C@@H](C)CC)NC(=O)[C@H](Cc2ccccc2)N(C)C(=O)[C@H](Cc2ccc(O)cc2)NC(=O)[C@H](Cc2c[nH]c3ccccc23)NC(=O)[C@H](C)NC(=O)[C@H](C)NC(=O)CSC[C@H](C(=O)N2CCN(CC(=O)O)CC2)NC(=O)[C@H](Cc2ccccc2)N(C)C(=O)[C@H](CCC(=O)O)N(C)C1=O [Myostatin_99_v269] ({CH2CO}-AAWY[NMeF]I[Sar]K([CO-Piperazinyl(4-CH2COOH)])[Phe(4-COOH)]R[Cha][Gly(decyl)][NMeE][NMeF][dC]-{Piperazinyl(4-CH2COOH)}; thioether N-15)	100	100	3	59	–	–	–	–
CCCCCCC[C@@H]1NC(=O)[C@H](Cc2ccccc2)N(C)C(=O)[C@H](CCCNC(=N)N)NC(=O)[C@H](Cc2ccc(C(=O)O)cc2)NC(=O)[C@H](Cc2cccc(OCC(=O)O)c2)NC(=O)CN(C)C(=O)[C@H]([C@@H](C)CC)NC(=O)[C@H](Cc2ccccc2)N(C)C(=O)[C@H](Cc2ccc(OCCN)cc2)NC(=O)[C@H](Cc2c[nH]c3ccccc23)NC(=O)[C@H](C)NC(=O)[C@H](C)NC(=O)CSC[C@H](C(=O)N2CCN(CC(=O)O)CC2)NC(=O)[C@H](Cc2ccccc2)N(C)C(=O)[C@H](C)N(C)C1=O [Myostatin_99_v299] ({CH2CO}-AAW[AEF][NMeF]I[Sar][Phe(3-OCH2COOH)][Phe(4-COOH)]R[NMeF][X1][NMeA][NMeF][dC]-{Piperazinyl(4-CH2COOH)}; thioether N-15)	93	99	0	0	–	–	–	–
CCCCCCC[C@@H]1NC(=O)[C@H](Cc2ccccc2)N(C)C(=O)[C@H](CCCNC(=N)N)NC(=O)[C@H](Cc2ccc(C(=O)O)cc2)NC(=O)[C@H](Cc2cccc(OCC(=O)O)c2)NC(=O)CN(C)C(=O)[C@H]([C@@H](C)CC)NC(=O)[C@H](Cc2ccccc2)N(C)C(=O)[C@H](Cc2cccc3ccccc23)NC(=O)[C@H](Cc2c[nH]c3ccccc23)NC(=O)[C@H](C)NC(=O)[C@H](C)NC(=O)CSC[C@H](C(=O)N2CCN(CC(=O)O)CC2)NC(=O)[C@H](Cc2ccccc2)N(C)C(=O)[C@H](C)N(C)C1=O [Myostatin_99_v300] ({CH2CO}-AAW[1Nal][NMeF]I[Sar][Phe(3-OCH2COOH)][Phe(4-COOH)]R[NMeF][X1][NMeA][NMeF][dC]-{Piperazinyl(4-CH2COOH)}; thioether N-15)	81	97	0	0	–	–	–	–
CCCCCCC[C@@H]1NC(=O)[C@H](Cc2ccccc2)N(C)C(=O)[C@H](CCCNC(=N)N)NC(=O)[C@H](Cc2ccc(C(=O)O)cc2)NC(=O)[C@H](Cc2cccc(OCC(=O)O)c2)NC(=O)CN(C)C(=O)[C@H]([C@@H](C)CC)NC(=O)[C@H](Cc2ccccc2)N(C)C(=O)[C@H](Cc2cccc(-c3ccccc3)c2)NC(=O)[C@H](Cc2c[nH]c3ccccc23)NC(=O)[C@H](C)NC(=O)[C@H](C)NC(=O)CSC[C@H](C(=O)N2CCN(CC(=O)O)CC2)NC(=O)[C@H](Cc2ccccc2)N(C)C(=O)[C@H](C)N(C)C1=O [Myostatin_99_v301] ({CH2CO}-AAW[Phe(3-Ph)][NMeF]I[Sar][Phe(3-OCH2COOH)][Phe(4-COOH)]R[NMeF][X1][NMeA][NMeF][dC]-{Piperazinyl(4-CH2COOH)}; thioether N-15)	93	99	0	0	–	–	–	–
CCCCCCC[C@@H]1NC(=O)[C@H](Cc2ccccc2)N(C)C(=O)[C@H](CCCNC(=N)N)NC(=O)[C@H](Cc2ccc(C(=O)O)cc2)NC(=O)[C@H](Cc2cccc(OCC(=O)O)c2)NC(=O)CN(C)C(=O)[C@H]([C@@H](C)CC)NC(=O)[C@H](Cc2ccc(OCCCN)cc2)N(C)C(=O)[C@H](Cc2ccc(O)cc2)NC(=O)[C@H](Cc2c[nH]c3ccccc23)NC(=O)[C@H](C)NC(=O)[C@H](C)NC(=O)CSC[C@H](C(=O)N2CCN(CC(=O)O)CC2)NC(=O)[C@H](Cc2ccccc2)N(C)C(=O)[C@H](C)N(C)C1=O [Myostatin_99_v302] ({CH2CO}-AAWY[NMeY](Propyl(3-NH2))I[Sar][Phe(3-OCH2COOH)][Phe(4-COOH)]R[NMeF][X1][NMeA][NMeF][dC]-{Piperazinyl(4-CH2COOH)}; thioether N-15)	99	100	0	0	–	–	–	–
CCCCCCC[C@@H]1NC(=O)[C@H](Cc2ccccc2)N(C)C(=O)[C@H](CCCNC(=N)N)NC(=O)[C@H](Cc2ccc(C(=O)O)cc2)NC(=O)[C@H](Cc2cccc(OCC(=O)O)c2)NC(=O)CN(C)C(=O)[C@H]([C@@H](C)CC)NC(=O)[C@H](CC2CCN(C(C)=O)CC2)N(C)C(=O)[C@H](Cc2ccc(O)cc2)NC(=O)[C@H](Cc2c[nH]c3ccccc23)NC(=O)[C@H](C)NC(=O)[C@H](C)NC(=O)CSC[C@H](C(=O)N2CCN(CC(=O)O)CC2)NC(=O)[C@H](Cc2ccccc2)N(C)C(=O)[C@H](C)N(C)C1=O [Myostatin_99_v303] ({CH2CO}-AAWY[X2]I[Sar][Phe(3-OCH2COOH)][Phe(4-COOH)]R[NMeF][X1][NMeA][NMeF][dC]-{Piperazinyl(4-CH2COOH)}; thioether N-15)	100	100	39	67	–	–	–	–
CCCCCCC[C@@H]1NC(=O)[C@H](Cc2ccccc2)N(C)C(=O)[C@H](CCCNC(=N)N)NC(=O)[C@H](Cc2ccc(C(=O)O)cc2)NC(=O)[C@H](Cc2cccc(OCC(=O)O)c2)NC(=O)CN(C)C(=O)[C@H]([C@@H](C)CC)NC(=O)[C@H](Cc2cccc(-c3ccccc3)c2)N(C)C(=O)[C@H](Cc2ccc(O)cc2)NC(=O)[C@H](Cc2c[nH]c3ccccc23)NC(=O)[C@H](C)NC(=O)[C@H](C)NC(=O)CSC[C@H](C(=O)N2CCN(CC(=O)O)CC2)NC(=O)[C@H](Cc2ccccc2)N(C)C(=O)[C@H](C)N(C)C1=O [Myostatin_99_v304] ({CH2CO}-AAWY[NMePhe(3-Ph)]I[Sar][Phe(3-OCH2COOH)][Phe(4-COOH)]R[NMeF][X1][NMeA][NMeF][dC]-{Piperazinyl(4-CH2COOH)}; thioether N-15)	74	88	0	0	–	–	–	–
CCCCCCC[C@@H]1NC(=O)[C@H](Cc2ccccc2)N(C)C(=O)[C@H](CCCNC(=N)N)NC(=O)[C@H](Cc2ccc(C(=O)O)cc2)NC(=O)[C@H](Cc2cccc(OCC(=O)O)c2)NC(=O)CN(C)C(=O)[C@H]([C@@H](C)CC)NC(=O)[C@H](Cc2ccc3ccccc3c2)N(C)C(=O)[C@H](Cc2ccc(O)cc2)NC(=O)[C@H](Cc2c[nH]c3ccccc23)NC(=O)[C@H](C)NC(=O)[C@H](C)NC(=O)CSC[C@H](C(=O)N2CCN(CC(=O)O)CC2)NC(=O)[C@H](Cc2ccccc2)N(C)C(=O)[C@H](C)N(C)C1=O [Myostatin_99_v306] ({CH2CO}-AAWY[NMe2Nal]I[Sar][Phe(3-OCH2COOH)][Phe(4-COOH)]R[NMeF][X1][NMeA][NMeF][dC]-{Piperazinyl(4-CH2COOH)}; thioether N-15)	–	–	–	–	94	80	0	0
CCCCCCC[C@@H]1NC(=O)[C@H](Cc2ccccc2)N(C)C(=O)[C@H](CCCNC(=N)N)NC(=O)[C@H](Cc2ccc(C(=O)O)cc2)NC(=O)[C@H](Cc2cccc(OCC(=O)O)c2)NC(=O)CN(C)C(=O)[C@H]([C@@H](C)CC)NC(=O)[C@H](Cc2ccc(OC)cc2)N(C)C(=O)[C@H](Cc2ccc(O)cc2)NC(=O)[C@H](Cc2c[nH]c3ccccc23)NC(=O)[C@H](C)NC(=O)[C@H](C)NC(=O)CSC[C@H](C(=O)N2CCN(CC(=O)O)CC2)NC(=O)[C@H](Cc2ccccc2)N(C)C(=O)[C@H](C)N(C)C1=O [Myostatin_99_v307] ({CH2CO}-AAWY[NMeY](Me)I[Sar][Phe(3-OCH2COOH)][Phe(4-COOH)]R[NMeF][X1][NMeA][NMeF][dC]-{Piperazinyl(4-CH2COOH)}; thioether N-15)	–	–	–	–	98	89	0	12
